According to US20110275638A1, “PIPERAZINE DERIVATIVES AND THEIR USE AS LEPTIN RECEPTOR MODULATORS” (priority 2008, published 2011):

How the values were obtained:
JEG-3 cells [1] = experiment: [3H]-thymidine incorporation in JEG-3 cells (JEG-3 protocol); assay type: cell-based; conditions: FIG. 4
Description: In JEG-3 cells (choriocarcinoma cell line) leptin is able to stimulate proliferation up to 3 fold (Biol. Reprod. (2007) 76: 203-10). […] The radioactivity incorporated by the cells is an index of their proliferative activity and is measured in counts per minute (CPM) with a liquid scintillation beta counter.
This finding can be applied to test whether a compound is able to either reproduce the effect of leptin on cell proliferation (leptin receptor agonist mimetic) (i.e., a given compound will cause an increase in incorporated [^3H]-Thymidine by the cells) or to inhibit the effect of leptin (antagonistic effect) by preventing the leptin-mediated increase in [^3H]-thymidine incorporation.

JEG-3 cells [2] = conditions: Biol. Reprod. (2007) 76: 203-10; cited from earlier work

Substance: leptin: hormone synthesized in fat cells that is believed to act in the hypothalamus to reduce food intake and body weight
- EC50 (JEG-3 cells [1]; JEG-3 cells (choriocarcinoma cell line), read-out: EC50, increase in [3H]-thymidine incorporation): 2.1 nM
- concentration of maximal effect on [3H]-thymidine incorporation (JEG-3 cells [1]; JEG-3 cells): 100 nM
- stimulation of proliferation (JEG-3 cells [2]): up to 3 fold
